This note sets out measurements from article PMC3585964, “Tissue Inhibitor of Metalloproteinases-3 Peptides Inhibit Angiogenesis and Choroidal Neovascularization in Mice” (PLoS ONE, 2013).

For experiment [1], the system named is PAE/KDR cells. Kind of experiment: Actin reorganization / membrane ruffle formation (FITC-phalloidin). Format: cell-based, Porcine. Conditions: peptide at doses as high as 20 µM; 50 ng/ml VEGF 30 min 37°C. On the procedure: (§1) Porcine Aortic Endothelial cells expressing VEGFR-2 (PAEKDR) were cultured in Ham’s F-12/DMEM medium supplemented with 10% fetal bovine serum (FBS) (Hyclone), 50 units/ml penicillin and 50 µg/ml streptomycin as described previously. Recombinant human VEGF was a kind gift from Genentech, CA. Antibodies: Anti-Phosphotyrosine clone 4G10 (Upstate Biotechnology/Millipore, Billerica, MA), monoclonal anti-Flk-1 (A-3) (Santa Cruz Biotechnology, Santacruz, CA), MAPK and phospho-specific MAPK antibodies (Calbiochem-Novabiochem Corporation/EMD chemicals, Gibbstown, NJ).
Subconfluent cells cultured on Falcon culture slides (BD Biosciences) were serum-starved overnight and stimulated for 30 min at 37°C with 50 ng/ml VEGF or control buffer. The cells were fixed with 3.7% paraformaldehyde in PBS for 30 min at 4°C and permeabilized with 0.2% Triton X-100 for 20 min at room temperature. Following rinsing with PBS, the cells were incubated with fluorescein isothiocyanate (FITC)-labeled phalloidin in PBS (0.66 µg/ml, Sigma Aldrich, St. Louis, MO) for 20 min at room temperature, washed with PBS and analyzed by fluorescence microscopy.
Figure 5 Effects of TIMP-3 peptides on VEGF-mediated actin reorganization. TIMP-3 loop 6 and tail but not loop 5 and N-peptide inhibit VEGF-induced actin reorganization in PAE/KDR cells. […]

In experiment [2] the test system is PAE/KDR cells. Nature of the experiment: Modified Boyden chamber migration assay. Particulars: peptide up to 20 µM; 50 ng/ml VEGF, 4 h 37°C, mini-Boyden chamber; quadruplicate samples. It counts as cell-based, Porcine. Here is the method:
as §1
A modified Boyden chamber assay was performed as described previously. Briefly, 8.0 µm pore PVPF polycarbonate membranes were pre-coated with 100 µg/ml collagen type I in 0.2 N acetic acid (Cohesion technologies, Inc. Palo Alto, California). VEGF at the indicated concentrations was placed in the lower chamber, and cells (2×10^5) in serum-free medium were placed in the upper chambers. […] The number of migrating cells per well was evaluated by light microscopy.
Figure 4 Effects of TIMP-3 peptides on VEGF-mediated EC migration. […] Cells were analyzed for migration towards 50 ng/ml VEGF in the presence or absence of increasing concentrations of loop 6 (a) and tail peptides (b) or 20 µM loop 5 or N-peptide (c), respectively, using a mini-Boyden chamber incubated at 37°C for 4 h.

Experiment [3] concerns VEGFR-2 (KDR) in PAE/KDR cells. Kind of experiment: VEGF-induced VEGFR-2 phosphorylation (immunoprecipitation/western blot). Format: cell-based, Porcine. Conditions: 20 µM peptide, 50 ng/ml VEGF. On the procedure:
as §1
Immunoprecipitates of cell lysates with the indicated antibodies were subjected to SDS-PAGE and western blot analysis. Proteins were detected with either a HRP-conjugated anti-rabbit or anti-mouse IgG antibody (Amersham Pharmacia Biotech., Piscataway, NJ) followed by ECL. […]
Figure 3 Effects of TIMP-3 peptides on VEGF signaling in endothelial cells. […] Cell lysates were separated by SDS-PAGE (10%) and analyzed by immunoprecipitation with an anti-KDR anti-body followed by immunoblotting with an anti-phosphotyrosine antibody, 4G10 (top panel). KDR protein was analyzed by immunoprecipitation and immunoblotting of cell lysates using anti-KDR antibody (bottom panel). (b) Densitometric quantitation of 210-kDa bands for phospho- or total mature form of KDR. […]

In experiment [4] the test system is PAE/KDR cells. Kind of experiment: VEGF-induced endothelial cell proliferation. It counts as cell-based, Porcine. Conditions: 1 µM peptide, 5 days; for Effect on VEGF-induced endothelial cell proliferation (in words): VEGF 5 ng/ml, ** p<0.01 vs VEGF control in figure legend. Here is the method: as §1
Cells were seeded at a density of 2000 cells/well in 24 well culture plates and cultured for 24 h in growth medium. After synchronization overnight in serum-free medium supplemented with 0.1% BSA, the cells were stimulated with or without VEGF […] in the presence or absence of the indicated concentrations of TIMP-3 peptides. After a 5-day incubation, cells were trypsinized and counted using a Coulter particle counter.
Figure 6 Effects of TIMP-3 peptides on VEGF-mediated EC proliferation. […] Serum-starved cells were incubated with or without VEGF (5 ng/ml) in the presence or absence of the 1 µM of TIMP-3 peptides for 5 days.

For experiment [5], the target named is VEGFR-2 (KDR/Fc chimera) binding to VEGF (Homo sapiens, UniProt P35968). Nature of the experiment: Competitive ELISA, binding of sVEGFR-2/Fc to immobilized VEGF. Particulars: competitive ELISA, 50 ng/ml sVEGFR-2, peptides in 0.5 M Tris-HCl pH 7.5.
Chain of VEGFR-2 (KDR/Fc chimera) binding to VEGF (P35968 with tags, fused parts or gaps limits assumed): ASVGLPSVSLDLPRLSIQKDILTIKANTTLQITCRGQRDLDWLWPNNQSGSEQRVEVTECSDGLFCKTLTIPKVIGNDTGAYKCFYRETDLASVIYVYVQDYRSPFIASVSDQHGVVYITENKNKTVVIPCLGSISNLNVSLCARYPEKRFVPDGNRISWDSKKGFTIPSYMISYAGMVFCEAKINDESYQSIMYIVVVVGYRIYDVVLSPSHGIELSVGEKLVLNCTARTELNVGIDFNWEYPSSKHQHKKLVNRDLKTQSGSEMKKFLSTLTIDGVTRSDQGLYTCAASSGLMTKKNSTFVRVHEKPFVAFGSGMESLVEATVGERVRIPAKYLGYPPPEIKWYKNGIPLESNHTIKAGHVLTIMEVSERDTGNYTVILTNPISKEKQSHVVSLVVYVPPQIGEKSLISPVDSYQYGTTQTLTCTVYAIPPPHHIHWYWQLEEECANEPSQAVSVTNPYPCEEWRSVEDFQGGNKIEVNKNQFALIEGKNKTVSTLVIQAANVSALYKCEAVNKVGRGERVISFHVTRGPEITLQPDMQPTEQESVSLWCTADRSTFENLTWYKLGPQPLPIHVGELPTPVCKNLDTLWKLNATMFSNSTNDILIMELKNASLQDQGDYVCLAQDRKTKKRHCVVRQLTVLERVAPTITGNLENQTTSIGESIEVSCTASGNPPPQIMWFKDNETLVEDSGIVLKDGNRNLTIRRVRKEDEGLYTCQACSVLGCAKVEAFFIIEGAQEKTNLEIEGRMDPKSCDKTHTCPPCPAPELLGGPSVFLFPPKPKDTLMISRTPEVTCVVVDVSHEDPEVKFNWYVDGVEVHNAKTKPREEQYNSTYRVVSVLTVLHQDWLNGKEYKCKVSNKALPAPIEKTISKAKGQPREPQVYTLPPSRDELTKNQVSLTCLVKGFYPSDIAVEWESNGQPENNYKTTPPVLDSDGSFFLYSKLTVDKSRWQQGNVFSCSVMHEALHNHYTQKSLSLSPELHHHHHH
Procedure: (§2) 96 well EIA/RIA strip plates (COSTAR) were coated with 80 ng/ml recombinant VEGF overnight at 4°C, washed and blocked with blocking buffer (1% BSA and 5% sucrose) overnight at 4°C. Series of dilutions were prepared for recombinant proteins representing WT-TIMP-3, NT2:CT3 and N-T3 in PBS or synthetic peptides corresponding to T3-loop 5, T3-loop 6, T3-N or T3-tail peptides in 0.5 M Tris-HCl (pH 7.5). The diluents were mixed with 50 ng/ml recombinant human VEGFR-2 (KDR/Fc chimera, recombinant human VEGFR-1 (Flt-1)/Fc chimera (R&D Systems, Minneapolis, MN) or control human lgG (Sigma Aldrich, St Louis, MO). The mixtures were then added to the VEGF-coated well in a final volume of 100 µL in PBS and incubated for 2 hours at room temperature. Bound VEGFR-2 was detected by HRP-conjugated anti-human lgG(Fc specific) (1∶1000).
Experiment [6] deals with VEGFR-1 (Flt-1)/Fc chimera binding to VEGF. Nature of the experiment: Competitive ELISA, binding of sVEGFR-1/Fc to immobilized VEGF. The arrangement: species or system human. Particulars: 50 ng/ml sVEGFR-1 (Flt-1).
Procedure: as §2

Entries after “also recorded” stand apart in the source; their conditions may differ.

KIKSCYYLPCFVTS [T3-loop 5]: the “Inhibition of VEGF-stimulated membrane ruffle formation” value in experiment [1] is reported as “neither T3-loop 5 nor T3-N peptide at doses as high as 20 µM inhibited the formation of membrane ruffles”. Further, in experiment [2], the “Inhibition of VEGF-induced migration” value is given as “failed to inhibit VEGF-induced migration”. Further, the “Inhibition of VEGF-induced VEGFR-2 activation (phosphorylation)” value in experiment [3] is listed as “failed to inhibit VEGF-induced receptor activation”. Besides, in experiment [4], the “Possible induction of endothelial cell proliferation” value was “may in fact induce proliferation of endothelial cells” and the “Effect on VEGF-induced endothelial cell proliferation (in words)” value is “neither T3-loop 5 nor T3-N peptide showed inhibitory properties”. The “Effect of synthetic peptides on VEGF binding to sVEGFR-2 (in words)” value (“Effect … to sVEGFR-2 (in words)” below) in experiment [5] was “did not show any inhibitory activity”. Moreover, the “Effect … to sVEGFR-2 (in words)” value in experiment [5] (listed as Loop5) is recorded as “have no effect on sVEGFR-2-VEGF complexes”. Besides, the “Effect of synthetic peptides on VEGF binding to VEGFR-1 (in words)” value in experiment [6] is listed as “unable to inhibit sVEGFR-1-VEGF complexes”.

RGFTKMPHVQYIHTEASESL [T3-N peptide]: the “Inhibition of VEGF-stimulated membrane ruffle formation” value in experiment [1] was “neither T3-loop 5 nor T3-N peptide at doses as high as 20 µM inhibited the formation of membrane ruffles”. Further, the “Inhibition of VEGF-induced migration” value in experiment [2] was “failed to inhibit VEGF-induced migration”. Also, the “Inhibition of VEGF-induced VEGFR-2 activation (phosphorylation)” value in experiment [3] was “failed to inhibit VEGF-induced receptor activation”. In experiment [4], the “Possible induction of endothelial cell proliferation” value is listed as “may in fact induce proliferation of endothelial cells” and the “Effect on VEGF-induced endothelial cell proliferation (in words)” value was “neither T3-loop 5 nor T3-N peptide showed inhibitory properties”. Moreover, in experiment [5], the “Effect … to sVEGFR-2 (in words)” value is “did not show any inhibitory activity; also recorded: have no effect on sVEGFR-2-VEGF complexes”. Also, the “Effect of synthetic peptides on VEGF binding to VEGFR-1 (in words)” value in experiment [6] is given as “unable to inhibit sVEGFR-1-VEGF complexes”.
